In patent US8318752B2, “4-(3-chloro-2-fluoroanilino)-7-methoxy-6-{[1-(N-methylcarbamoyl-methyl)piperidin-4-yl]oxy}quinazoline, its pharmaceutically acceptable salts, and pharmaceutical compositions comprising the same” (Astrazeneca AB, priority 2003, dated 2012):

Key:
erbB2 tyrosine kinase = molecular target: T1, erbB2 tyrosine kinase (Homo sapiens, UniProt P04626); test: Protein tyrosine kinase phosphorylation assay, Test (a), erbB2; assay type: biochemical; details: recombinant intracellular fragment, ATP at Km; read-out: IC50 (μM) Test (a): Inhibition of erbB2 tyrosine kinase protein phosphorylation
T1 construct: Recombinant intracellular fragments of EGFR, erbB2 and erbB4; made in house; host or cells: baculovirus/Sf21
Procedure: (§1) This test measures the ability of a test compound to inhibit the phosphorylation of a tyrosine containing polypeptide substrate by EGFR or ErbB2 tyrosine kinase enzyme.
(§2) Recombinant intracellular fragments of EGFR, erbB2 and erbB4 (accession numbers X00588, X03363 and L07868 respectively) were cloned and expressed in the baculovirus/Sf21 system. Lysates were prepared from these cells by treatment with ice-cold lysis buffer (20 mM N-2-hydroxyethylpiperizine-N′-2-ethanesulfonic acid (HEPES) pH7.5, 150 mM NaCl, 10% glycerol, 1% Triton X-100, 1.5 mM MgCl2, 1 mM ethylene glycol-bis(β-aminoethyl ether) N′,N′,N′,N′-tetraacetic acid (EGTA), plus protease inhibitors and then cleared by centrifugation.
(§3) Constitutive kinase activity of the recombinant protein was determined by its ability to phosphorylate a synthetic peptide (made up of a random co-polymer of Glutamic Acid, Alanine and Tyrosine in the ratio of 6:3:1). Specifically, Maxisorb™ 96-well immunoplates were coated with synthetic peptide (0.2 μg of peptide in a 100 μl phosphate buffered saline (PBS) solution and incubated at 4° C. overnight). Plates were washed in PBS-T (phosphate buffered saline with 0.5% Tween 20) then in 50 mM HEPES pH 7.4 at room temperature to remove any excess unbound synthetic peptide. […]
(§4) The immobilised phospho-peptide product of the reaction was detected by immunological methods. […] After further washing, HRP activity in each well of the plate was measured colorimetrically using 22′-Azino-di-[3-ethylbenzthiazoline sulfonate (6)] diammonium salt crystals (ABTS™ from Roche) as a substrate.
(§5) Quantification of colour development and thus enzyme activity was achieved by the measurement of absorbance at 405 nm on a Molecular Devices ThermoMax microplate reader. Kinase inhibition for a given compound was expressed as an IC50 value. […] The range of phosphorylation was calculated from the positive (vehicle plus ATP) and negative (vehicle minus ATP) control values.

erbB2 = molecular target: T2, erbB2 (Homo sapiens, UniProt P04626); test: Clone 24 phospho-erbB2 cell assay, Test (e); assay type: cell-based; details: MCF7 derived Clone 24 cells overexpressing erbB2, 4 hrs; read-out: IC50 (μM) Test (e): Inhibition of erbB2 tyrosine kinase protein phosphorylation
T2 construct: overexpresses full length wild type erbB2 protein; expressed in transfected cells; host or cells: MCF7 (breast carcinoma) derived Clone 24 cells
Procedure: This immunofluorescence end point assay measures the ability of a test compound to inhibit the phosphorylation of erbB2 in a MCF7 (breast carcinoma) derived cell line which was generated by transfecting MCF7 cells with the full length erbB2 gene using standard methods to give a cell line that overexpresses full length wild type erbB2 protein (hereinafter ‘Clone 24’ cells).
Clone 24 cells were cultured in Growth Medium (phenol red free Dulbecco's modified Eagle's medium (DMEM) containing 10% foetal bovine serum, 2 mM glutamine and 1.2 mg/ml G418) in a 7.5% CO2 air incubator at 37° C. Cells were harvested from T75 stock flasks by washing once in PBS (phosphate buffered saline, pH7.4, Gibco No. 10010-015) and harvested using 2 mls of Trypsin (1.25 mg/ml)/ethylaminediaminetetraacetic acid (EDTA) (0.8 mg/ml) solution. The cells were resuspended in Growth Medium. Cell density was measured using a haemocytometer and viability was calculated using Trypan Blue solution before being further diluted in Growth Medium and seeded at a density of 1×10^4 cells per well (in 100 ul) into clear bottomed 96 well plates (Packard, No. 6005182).
3 days later, Growth Medium was removed from the wells and replaced with 100 ul Assay Medium (phenol red free DMEM, 2 mM glutamine, 1.2 mg/ml G418) either with or without erbB inhibitor compound. Plates were returned to the incubator for 4 hrs and then 20 μl of 20% formaldehyde solution in PBS was added to each well and the plate was left at room temperature for 30 minutes. This fixative solution was removed with a multichannel pipette, 100 μl of PBS was added to each well and then removed with a multichannel pipette and then 50 μl PBS was added to each well. Plates were then sealed and stored for up to 2 weeks at 4° C.
Immunostaining was performed at room temperature. […]
The Fluorescence signal is each well was measured using an Acumen Explorer Instrument (Acumen Bioscience Ltd.), a plate reader that can be used to rapidly quantitate features of images generated by laser-scanning. […]

EGFR tyrosine kinase = molecular target: T3, EGFR tyrosine kinase (Homo sapiens, UniProt P00533); test: Protein tyrosine kinase phosphorylation assay, Test (a), EGFR; assay type: biochemical; details: recombinant intracellular fragment, ATP at Km; read-out: IC50 (μM) Test (a): Inhibition of EGFR tyrosine kinase protein phosphorylation
T3 construct: Recombinant intracellular fragments of EGFR, erbB2 and erbB4; made in house; host or cells: baculovirus/Sf21
Procedure: as §1, §2, §3, §4, §5

KB cells = test: EGFR driven KB cell proliferation assay, Test (b); assay type: cell-based; details: Homo sapiens, 96 h, EGF 1 ng/ml, 4 days, MTT
Procedure: This assay measures the ability of a test compound to inhibit the proliferation of KB cells (human naso-pharangeal carcinoma obtained from the American Type Culture Collection (ATCC).
KB cells (human naso-pharangeal carcinoma obtained from the ATCC were cultured in Dulbecco's modified Eagle's medium (DMEM) containing 10% foetal calf serum, 2 mM glutamine and non-essential amino acids at 37° C. in a 7.5% CO2 air incubator. Cells were harvested from the stock flasks using Trypsin/ethylaminediaminetetraacetic acid (EDTA). Cell density was measured using a haemocytometer and viability was calculated using trypan blue solution before being seeded at a density of 1.25×10^3 cells per well of a 96 well plate in DMEM containing 2.5% charcoal stripped serum, 1 mM glutamine and non-essential amino acids at 37° C. in 7.5% CO2 and allowed to settle for 4 hours.
Following adhesion to the plate, the cells are treated with or without EGF (final concentration of 1 ng/ml) and with or without compound at a range of concentrations in dimethylsulfoxide (DMSO) (0.1% final) before incubation for 4 days. Following the incubation period, cell numbers were determined by addition of 50 μl of 3-(4,5-Dimethylthiazol-2-yl)-2,5-diphenyltetrazolium bromide (MTT) (stock 5 mg/ml) for 2 hours. […]
Absorbance of the solubilised cells was read at 540 nm using a Molecular Devices ThermoMax microplate reader. […]

T1 sequence (P04626 676-1255 limits assumed): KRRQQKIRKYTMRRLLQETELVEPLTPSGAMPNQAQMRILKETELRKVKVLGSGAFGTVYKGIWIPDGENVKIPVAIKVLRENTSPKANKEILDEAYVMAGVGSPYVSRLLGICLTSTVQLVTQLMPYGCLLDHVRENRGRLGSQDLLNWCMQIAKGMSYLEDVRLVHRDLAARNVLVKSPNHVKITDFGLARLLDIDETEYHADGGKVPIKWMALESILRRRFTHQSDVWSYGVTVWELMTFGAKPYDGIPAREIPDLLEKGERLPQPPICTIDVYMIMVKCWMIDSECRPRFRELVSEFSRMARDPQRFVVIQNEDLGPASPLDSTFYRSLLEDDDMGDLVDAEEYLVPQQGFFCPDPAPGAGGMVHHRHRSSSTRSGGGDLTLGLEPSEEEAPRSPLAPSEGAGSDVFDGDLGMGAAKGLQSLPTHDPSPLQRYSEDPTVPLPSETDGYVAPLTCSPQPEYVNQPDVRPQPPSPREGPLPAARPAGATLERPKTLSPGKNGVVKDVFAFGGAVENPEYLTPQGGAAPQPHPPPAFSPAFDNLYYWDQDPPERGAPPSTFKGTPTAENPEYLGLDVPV
T2 sequence (P04626 23-1255): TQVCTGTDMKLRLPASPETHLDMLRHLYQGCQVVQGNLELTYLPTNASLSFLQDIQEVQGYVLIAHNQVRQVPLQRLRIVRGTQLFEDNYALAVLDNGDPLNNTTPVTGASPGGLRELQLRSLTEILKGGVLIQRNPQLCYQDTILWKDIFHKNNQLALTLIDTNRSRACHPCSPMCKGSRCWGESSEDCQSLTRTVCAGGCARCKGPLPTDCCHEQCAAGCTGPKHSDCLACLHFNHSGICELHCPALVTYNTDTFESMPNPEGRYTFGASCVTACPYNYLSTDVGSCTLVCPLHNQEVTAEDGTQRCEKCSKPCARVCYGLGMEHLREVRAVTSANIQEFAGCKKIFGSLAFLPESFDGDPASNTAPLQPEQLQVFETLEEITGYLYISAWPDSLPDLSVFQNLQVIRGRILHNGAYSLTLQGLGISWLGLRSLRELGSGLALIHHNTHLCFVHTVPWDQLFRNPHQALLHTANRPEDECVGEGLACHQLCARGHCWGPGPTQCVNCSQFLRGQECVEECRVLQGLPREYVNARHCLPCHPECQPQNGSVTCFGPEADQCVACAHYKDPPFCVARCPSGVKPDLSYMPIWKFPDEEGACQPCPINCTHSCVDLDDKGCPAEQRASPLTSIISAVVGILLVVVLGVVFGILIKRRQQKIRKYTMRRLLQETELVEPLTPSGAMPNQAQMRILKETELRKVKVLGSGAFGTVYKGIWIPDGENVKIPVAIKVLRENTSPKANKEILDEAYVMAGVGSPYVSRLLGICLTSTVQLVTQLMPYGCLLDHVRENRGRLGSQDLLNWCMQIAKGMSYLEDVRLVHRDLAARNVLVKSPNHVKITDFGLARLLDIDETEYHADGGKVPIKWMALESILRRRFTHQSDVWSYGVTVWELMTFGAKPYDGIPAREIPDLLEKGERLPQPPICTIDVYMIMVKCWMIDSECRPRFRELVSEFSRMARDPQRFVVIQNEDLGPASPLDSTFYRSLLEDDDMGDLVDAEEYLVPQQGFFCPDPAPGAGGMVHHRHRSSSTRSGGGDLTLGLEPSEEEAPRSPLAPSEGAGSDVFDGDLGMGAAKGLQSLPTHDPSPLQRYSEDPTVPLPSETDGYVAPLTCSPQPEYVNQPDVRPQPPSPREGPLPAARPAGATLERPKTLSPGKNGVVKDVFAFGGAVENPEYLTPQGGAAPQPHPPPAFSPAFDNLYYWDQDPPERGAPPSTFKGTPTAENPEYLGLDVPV
T3 sequence (P00533 669-1210 limits assumed): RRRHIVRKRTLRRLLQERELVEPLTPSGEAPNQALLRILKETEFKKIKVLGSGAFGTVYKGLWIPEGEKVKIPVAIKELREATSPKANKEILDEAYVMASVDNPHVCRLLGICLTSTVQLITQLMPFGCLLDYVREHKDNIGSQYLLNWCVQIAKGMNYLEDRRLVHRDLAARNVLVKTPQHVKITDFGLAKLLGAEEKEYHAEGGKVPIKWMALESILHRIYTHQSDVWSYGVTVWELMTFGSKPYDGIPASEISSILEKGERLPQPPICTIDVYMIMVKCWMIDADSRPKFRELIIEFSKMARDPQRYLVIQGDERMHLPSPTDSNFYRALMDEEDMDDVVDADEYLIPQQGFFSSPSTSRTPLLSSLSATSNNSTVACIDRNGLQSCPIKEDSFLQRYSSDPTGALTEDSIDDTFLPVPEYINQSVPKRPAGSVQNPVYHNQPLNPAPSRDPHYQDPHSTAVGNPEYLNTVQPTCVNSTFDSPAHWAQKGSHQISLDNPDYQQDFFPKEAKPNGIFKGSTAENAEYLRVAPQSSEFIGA

Row | IC50 (erbB2 tyrosine kinase) [µM] | IC50 (erbB2) [µM] | IC50 (EGFR tyrosine kinase) [µM] | IC50 (KB cells) [µM] | Compound
1 | 0.047 | 0.006 | 0.004 | 0.009 | CNC(=O)CN1CCC(Oc2cc3c(Nc4ccc(F)c(Cl)c4F)ncnc3cc2OC)CC1 [Example 5, 4-(3-chloro-2,4-difluoroanilino)-7-methoxy-6-{[1-(N-methycarbamoylmethyl)piperidin-4-yl]oxy}quinazoline]
2 | 0.013 | 0.014 | 0.003 | 0.017 | COc1cc2ncnc(Nc3cccc(Cl)c3F)c2cc1OC1CCN(CC(=O)NCCN2CCCC2)CC1 [Example 7, 4-(3-chloro-2-fluoroanilino)-7-methoxy-6-{[1-(N-[2-(pyrrolidin-1-yl)ethyl]carbamoylmethyl)piperidin-4-yl]oxy}quinazoline]
3 | 0.01 | 0.013 | 0.004 | – | COc1cc2ncnc(Nc3cccc(Cl)c3F)c2cc1OC1CCN(CC(=O)N2CCN(C)CC2)CC1 [Example 10, 4-(3-chloro-2-fluoroanilino)-7-methoxy-6-({1-[2-(4-methylpiperazin-1-yl)-2-oxoethyl]piperidin-4-yl}oxy)quinazoline]
